Source: patent publication US20200352912A1, “ANTIMICROBIAL COMPOSITIONS AND METHODS OF USING THE SAME” (The Board Of Supervisors Of Louisiana State University And …, priority 2018, published 2020)

Legend:
S. aureus NRS383 = assay: planktonic antimicrobial assay (OD600 growth); type: cell-based, Staphylococcus aureus; details: 100 μg/ml (inhibitor-specific concentrations b175), OD600 up to 24 h
Method: Effect of COX enzyme inhibitors or PGE2 EP receptor antagonists on microbial growth. The antimicrobial activity of selective COX enzyme inhibitor or PGE2 EP receptor antagonist on the growth of C. albicans DAY185 (A), S. aureus NRS383 (B) and MRSA and MSSA clinical isolates (C). Growth of C. albicans and S. aureus was monitored for up to 24 h in medium alone or supplemented with DMSO or EP receptor antagonists or COX enzyme inhibitor at physiologically relevant concentrations. Data shown are representative of three independent experiments.
C. albicans and S. aureus were grown as described above. […] Cells were grown with shaking as described above, and 1 ml aliquots were removed each hour in duplicate and optical density at 600 nm measured (OD600) by spectrophotometer (Biomate 3S, Thermo Scientific).

[1] = test system: dual-species biofilm with C. albicans; assay: biofilm formation on polystyrene (XTT, CFU); type: cell-based, C. albicans and S. aureus
Method: The effect of L-161,982 on biofilm formation was tested. Mono- and dual-species C. albicans and/or S. aureus biofilms were grown on 96-well plates for 24 h with the indicated concentration of L-161, 982. After incubation, metabolic activity of biofilms was quantified by the XTT assay (A) and then biofilms were disrupted to determine live colony forming units (CFU) (B). The results are cumulative of three independent experiments with duplicate samples. Statistics was performed using One-way ANOVA with the Tukey post-hoc test for the XTT assay. The Mann-Whitney U test was used to analyze CFU data. Significance is indicated as follows: ns—not significant, *P<0.05; *** P<0.001. Error bars represent standard deviation.
Following growth as described above, microbes were washed in phosphate-buffered saline (PBS) by centrifugation, counted on a hemocytometer, and adjusted to 2×10^7 CFU/ml in RPMI buffered with MOPS (165 mM). […]
The XTT reduction assay was used to determine the metabolic activity of biofilms following treatment with L-161, 982 (17). Briefly, wells were washed once in PBS, and plates incubated at 37° C. for 2 h with 200 μl XTT working reagent (0.5 mg/ml XTT and 1 μM Menadione) and the resulting absorbance measured at 490 nm on a microplate spectrophotometer. […]

[2] = administration of L-161,982 alone to control animals; type: in vivo, mice
Description: Furthermore, L-161, 982 protected mice against the synergistic lethality induced by co-infection with C. albicans and S. aureus. […] The goal of these studies was to further investigate the antimicrobial mechanism of action (MOA) of L-161, 982, testing mechanisms associated with major classes of antimicrobials.

S. aureus = assay: generation of hydroxyl radicals (thiourea scavenger); type: cell-based, Staphylococcus aureus; details: 50 μg/ml, 150 mM thiourea
Method: (A) Effects of reactive oxygen species inhibitors. Growth of S. aureus was monitored for up to 6 h in medium alone or medium supplemented with 15 mM of Na-L-ascorbate, and/or 15 mM N-acetyl-L-cysteine, and/or 50 μg/ml L-161, 982. Data shown are representative of two independent experiments. (B) Effects of hydroxyl radical scavengers. Growth was monitored for 4 h in medium alone or medium supplemented with 50 μg/ml L-161, 982 or 1 mM H2O2 alone, plus 150 mM thiourea, or plus 500 μM 2,2′-dipyridyl.
Generation of hydroxyl radicals. Antibiotic induced hydroxyl radical production was measured as previously described (12). Overnight cultures of S. aureus were diluted 1:100 in TSB and grown for 3 h at 37° C. with shaking to mid-log phase. Cultures were diluted in TSB to OD600=0.05 and L-161, 982 was added at a final concentration of 50 µg/ml+/−H2O2 (1 mM; Sigma) or thiourea (150 mM; Sigma). Cultures were incubated at 37° C. with shaking and aliquots were removed at t(0) and at 1 h intervals duplicate, diluted 1:100 and optical density measured at 600 nm (OD600) or serially diluted and plated onto SDA and grown at 37° C. for 24 h for CFU enumeration.

EP2 = EP2 (Homo sapiens, UniProt P43116); details: cited from earlier work
Chain of EP2 (P43116 whole entry): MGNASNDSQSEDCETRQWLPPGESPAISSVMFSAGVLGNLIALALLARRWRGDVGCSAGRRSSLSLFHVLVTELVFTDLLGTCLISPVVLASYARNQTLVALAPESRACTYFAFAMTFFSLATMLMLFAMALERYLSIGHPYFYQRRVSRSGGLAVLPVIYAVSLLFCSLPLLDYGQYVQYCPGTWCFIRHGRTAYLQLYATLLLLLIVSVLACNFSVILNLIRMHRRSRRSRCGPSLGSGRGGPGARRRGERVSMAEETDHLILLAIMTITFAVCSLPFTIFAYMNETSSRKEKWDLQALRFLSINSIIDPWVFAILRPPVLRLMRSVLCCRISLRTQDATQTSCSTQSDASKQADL

Q: Which “growth of S. aureus” value (S. aureus NRS383) does the source give for CCCCc1nn(-c2ccccc2C(F)(F)F)c(=O)n1Cc1ccc(-c2ccccc2S(=O)(=O)NC(=O)c2sccc2C)cc1 [L-161, 982, N-[[4′-[[3-Butyl-1,5-dihydro-5-oxo-1-[2-(trifluoromethyl)phenyl]-4H-1,2,4-triazol-4-yl]methyl][1,1′-biphenyl]-2-yl]sulfonyl]-3-methyl-2-thiophenecarboxamide] here?
A: significant inhibitory effect

Q: What about the “inhibitory effect in dual-species biofilm” value [1] of the same compound?
A: no inhibitory effect

Q: What about the “morbidity or mortality in control animals” value [2] of the same compound?
A: no morbidity or mortality

Q: And the “overt signs of toxicity” value [2]?
A: did not cause any overt signs of toxicity

Q: What about the “effect of thiourea on growth inhibition” value (S. aureus) of the same compound?
A: did not alleviate

Q: And the Ki (EP2)?
A: 23 µM
